These results are taken from patent US11932657B2, “Heterocyclic compound” (priority 2018, dated 2024).

Experiment [1] relates to immortalized megakaryocyte line (SeV2-MKCL). In words: Platelet production: static culturing of immortalized megakaryocyte line. It counts as cell-based. To be noted: compound final concentration 0.1 μM, static culturing 6 to 7 days, control (DMSO) set to 1; platelets = CD41, CD42b and CD42a-positive cells. On the procedure: Test Example 2 (Platelet Production: Static Culturing)
The immortalized megakaryocyte line (SeV2-MKCL) obtained according to the method described in WO 2016/204256 was washed twice with D-PBS(−) and then cultured in medium not containing doxycycline to terminate forced expression. Culturing was implemented by seeding the cells at 1 mL/well in a 24-well plate (#662160 (Greiner Rio-One)) at a seeding density of 1×10^5 cells/mL followed by static culturing in the medium indicated below.
The medium was obtained by adding the following components to IMDM serving as the basal medium (concentrations indicate final concentrations).
Culturing was implemented under conditions of 37° C. and 5% CO2. At the same time, the compound of the present invention (final concentration 0.1 μM) or DMSO (control) was added and cultured for 6 to 7 days. Thereafter, the number of platelets (CD41, CD42b, and CD42a-positive cells) was measured. The measurement method was as shown below. The same procedure was performed with the control.
A portion of the culture supernatant was harvested 6 to 7 days after culturing to terminate gene expression, and suspended with the following antibodies to stain them. eFluor 450-labeled anti-CD42a antibody (#48-0428-42 (eBioscience)) PE-labeled anti-CD42b antibody (#303906 (BioLegend)) APC-labeled anti-CD41 antibody (#303710 (BioLegend)) The number of platelets was counted using FACSVerse manufactured by BD 30 minutes after the stain reaction. In the measurement of the number of platelets, the number of cells was corrected using Flow-count beads (#7547053 (Beckman Coulter)).
The number of platelets produced from one megakaryocyte cell was calculated based on the number of platelets in the sample obtained by the FACS measurement, and the result was defined as platelet production efficiency (PLT/MK) and used for evaluation of drug efficacy of the compound. In addition, the specific activity at the time when the platelet production efficiency of the control was set to 1 was indicated as fold increase.

Experiment [2] deals with T1, aryl hydrocarbon receptor (AhR) (Homo sapiens, UniProt P35869).
T1 construct: DRE-Luc HepG2 cells subcultured in a 225 cm^2 flask; endogenous in cells; host or cells: HepG2 (ATCC), stably transfected with the reporter hCYP1A1/pGL4.27 (DRE-Luc HepG2)
T1 sequence (P35869 11-848): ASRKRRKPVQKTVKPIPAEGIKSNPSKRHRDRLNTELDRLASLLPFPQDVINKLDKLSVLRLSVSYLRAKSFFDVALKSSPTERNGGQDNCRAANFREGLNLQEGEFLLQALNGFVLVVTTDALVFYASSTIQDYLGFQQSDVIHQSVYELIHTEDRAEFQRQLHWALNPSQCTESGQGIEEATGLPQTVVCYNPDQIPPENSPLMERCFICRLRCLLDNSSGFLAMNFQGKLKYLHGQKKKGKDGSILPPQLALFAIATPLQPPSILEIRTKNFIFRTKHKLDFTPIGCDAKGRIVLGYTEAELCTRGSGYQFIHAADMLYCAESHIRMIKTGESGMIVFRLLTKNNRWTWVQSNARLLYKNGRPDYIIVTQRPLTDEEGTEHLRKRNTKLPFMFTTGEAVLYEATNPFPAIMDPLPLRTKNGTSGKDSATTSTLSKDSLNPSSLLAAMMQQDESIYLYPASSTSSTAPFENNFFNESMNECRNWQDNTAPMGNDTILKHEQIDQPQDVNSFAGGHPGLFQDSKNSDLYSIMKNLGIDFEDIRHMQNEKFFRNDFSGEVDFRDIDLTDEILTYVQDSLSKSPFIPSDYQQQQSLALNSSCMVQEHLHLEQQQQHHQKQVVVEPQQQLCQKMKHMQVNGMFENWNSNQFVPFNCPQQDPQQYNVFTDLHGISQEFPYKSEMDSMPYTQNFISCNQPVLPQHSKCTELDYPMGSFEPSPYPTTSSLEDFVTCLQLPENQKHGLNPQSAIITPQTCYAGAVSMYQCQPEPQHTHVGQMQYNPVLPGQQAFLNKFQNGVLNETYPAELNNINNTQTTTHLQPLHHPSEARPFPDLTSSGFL
In words: AhR reporter gene assay (aryl hydrocarbon receptor antagonist activity, DRE-Luc HepG2 cells, TCDD-stimulated luciferase). It counts as cell-based. On the procedure:
Test Example 1 (Aryl Hydrocarbon Receptor Antagonist Activity)
An expression vector, hCYP1A1/pGL4.27 was introduced into HepG2 cells (derived from American Type Culture Collection (ATCC)) that were seeded in 6-well plates (#3810-006 (Iwaki)) at 1.2×10^6 cells/well, using Lipofectamine 3000 (#100022050 (Invitrogen)). Referring to Garrion P M et al., Fundam Appl Toxicol, 30, 194 (1996), the vector hCYP1A1/pGL4.27 incorporated the human CYP1A1 promotor region including dioxin responsive element (DRE) region of the AhR binding region into the XhoI-BglII restriction enzyme site of pGL4.27 (#E8451 (Promega)). After 24 hours, medium-1 was replaced, and after 48 hours, the medium-1 containing hygromycin B (200 to 1000 μg/mL) was subjected to drug treatment. Culturing using the medium containing hygromycin B was continued for about 1 month to clone 24 clones showing drug resistance. A cell line showing high reporter activity was selected (DRE-Luc HepG2) from drug resistant lines using as an indicator luciferase activity (Dual-Glo Luciferase substrate, #E297A (Promega)) relative to an AhR agonist, 2,3,7,8-tetrachlorodibenzo-p-dioxin (TCDD) (#ED-901-B (CIL.)).
DRE-Luc HepG2 cells subcultured in a 225 cm^2 flask (#11-0005 (Iwaki)) were washed with PBS (#1419-144 (Gibco), Lot: 1896207), and thereto was added 8 mL of Trypsin-EDTA (0.05%) (#25300-054 (Gibco)). Thereafter, an excessive liquid was removed from the mixture, and the cells were stood at room temperature for 5 minutes. Thereto was added 10 mL of medium-2, the cells were recovered through a cell strainer (#352350 (Falcon), 70 μm), and the number of cells were then counted using a hemocytometer. A cell suspension was prepared at 3×10^5 cells/mL, 100 μL/well of the cell suspension was seeded into a 96-well white plate (#136101, F96 Microwell (Nunc)), and the cells were then cultured in a CO2 incubator (5% CO2, 37° C.). After 24 hours, the medium was aspirated, and thereto was added 100 μL of an assay medium solution including the compound of the present invention, and the cells were cultured in the CO2 incubator (5% CO2, 37° C.). After 24 hours, 11 μL of an assay medium solution including 5×10^−10 M TCDD (#ED-901-B (CIL.)) was added thereto and the cells were cultured in the CO2 incubator (5% CO2, 37° C.). After 24 hours, 50 μL of a reaction substrate (#E253B, Steady-Glo Luciferase substrate (Promega)) for Firefly Luciferase enzyme reaction was added to each well, and after 5 minute-shaking, the light emission intensity was measured with Wallac ARVO 1420sx (PerkinElmer).

pIC50: −log10 of the molar value.

As to `Cc1cncc(-c2cc(CCNc3nc(-c4cncc(F)c4)nc4c3nc3n4[C@H](C)CS3)ccc2O)c1` [Example 74], the “Static (vs veh): fold increase of platelet production efficiency (PLT/MK)” value (shortened to “Static (vs veh): fold increase”) in experiment [1] turned out to be 3.5. In addition, in experiment [2], the pIC50 is 8.33.

As for `CC1(C)COc2nc3c(NCCc4c[nH]c5ccccc45)nc(-c4cncc(C(F)F)c4)nc3n21` [Example 101], the “Static (vs veh): fold increase” value in experiment [1] was 3.8. Moreover, in experiment [2], the pIC50 is 7.54.

Consider `C[C@@H]1CSc2nc3c(NCCc4ccc(O)c(-c5cccc(C#N)c5)c4)nc(-c4cncc(F)c4)nc3n21` [Example 58], for which the “Static (vs veh): fold increase” value in experiment [1] amounted to 5.1. In experiment [2], this compound showed a pIC50 of 9.34.

Turning to `CC1(C)COc2nc3c(NCCc4ccc(O)c(-c5ccccc5)c4)nc(-c4cncc(F)c4)nc3n21` [Example 1, 4-[2-[[2-(5-fluoropyridin-3-yl)-8,8-dimethyl-7H-purino[8,9-b][1,3]oxazol-4-yl]amino]ethyl]J-2-phenylphenol], in experiment [1], the “Static (vs veh): fold increase” value turned out to be 6.5. In experiment [2], the pIC50 is 8.36.

As for `CC1(C)COc2nc3c(NCCc4c[nH]c5ccccc45)nc(-c4cc(F)ccc4F)nc3n21` [Example 87], the “Static (vs veh): fold increase” value in experiment [1] is listed as 3.9. The compound further showed a pIC50 in experiment [2] of 7.42.

For `CC1(C)COc2nc3c(NCCc4ccc(O)c(-c5ccccc5Cl)c4)nc(-c4cncc(F)c4)nc3n21` [Example 5], the “Static (vs veh): fold increase” value in experiment [1] amounted to 5.1. For the same compound, the negative-log IC50 (pIC50) in experiment [2] is 7.44.

Regarding `CC1(C)C[S+]([O-])c2nc3c(NCCc4ccc(O)c(-c5cccc(F)c5)c4)nc(-c4cncc(F)c4)nc3n21` (centres unmarked) [Example 21], the “Static (vs veh): fold increase” value in experiment [1] amounted to 4.7. The compound further showed a pIC50 in experiment [2] of 10.48.

As to `CC1(C)COc2nc3c(NCCc4ccc(O)c(-c5cccc(F)c5)c4)nc(-c4cncc(C#N)c4)nc3n21` [Example 36], in experiment [1], the “Static (vs veh): fold increase” value is reported as 2.7. The compound further gave a pIC50 in experiment [2] of 9.15.

Turning to `Cc1cncc(-c2nc(NCCc3ccc(O)c(-c4ccccc4F)c3)c3nc4n(c3n2)C(C)(C)CO4)c1` [Example 23], in experiment [1], the “Static (vs veh): fold increase” value amounted to 8.0. Also, the pIC50 in experiment [2] is 8.02.

As for `CC1(C)CSc2nc3c(NCCc4ccc(O)c(-c5cncc(C#N)c5)c4)nc(-c4cncc(F)c4)nc3n21` [Example 76], the “Static (vs veh): fold increase” value in experiment [1] turned out to be 2.4. Further, the pIC50 in experiment [2] is 8.24.

For `CC1(C)CSc2nc3c(NCCc4ccc(O)c(-c5ccccc5F)c4)nc(-c4cncc(C#N)c4)nc3n21` [Example 38], the “Static (vs veh): fold increase” value in experiment [1] was determined as 4.9. The same compound showed a pIC50 in experiment [2] of 9.31.

As for `CC1(C)CSc2nc3c(NCCc4ccc(O)c(-c5ccccc5F)c4)nc(-c4ccc5nccn5c4)nc3n21` [Example 52], the “Static (vs veh): fold increase” value in experiment [1] was determined as 5.3. This compound gave a pIC50 in experiment [2] of 8.74.

For `CC1(C)CSc2nc3c(NCCc4ccc(O)c(-c5ccccc5)c4)nc(-c4cncc(C#N)c4)nc3n21` [Example 48], in experiment [1], the “Static (vs veh): fold increase” value came to 3.5. Besides, in experiment [2], the pIC50 is 9.38.

Consider `C[C@H]1CSc2nc3c(NCCc4ccc(O)c(-c5cccc(F)c5)c4)nc(-c4cncc(F)c4)nc3n21` [Example 31], for which, in experiment [1], the “Static (vs veh): fold increase” value is 5.9. Moreover, the pIC50 in experiment [2] is 9.34.

As for `C[C@H]1CSc2nc3c(NCCc4ccc(O)c(-c5ccccc5F)c4)nc(-c4cncc(F)c4)nc3n21` [Example 30], the “Static (vs veh): fold increase” value in experiment [1] is 6.7. Also, in experiment [2], the pIC50 is 9.11.

As to `CC1(C)CSc2nc3c(NCCc4ccc(O)c(-c5cccc(C#N)c5)c4)nc(-c4cncc(F)c4)nc3n21` [Example 57], in experiment [1], the “Static (vs veh): fold increase” value came to 4.9. Moreover, in experiment [2], the pIC50 was 9.41.
